Several values for one entry are separate records, joined by “and”; a condition that tells them apart may be missing. Identical values can stand only once.
Assays:
[1] = system: radiolabeled fibrinogen-derived clot; experiment: Lysis of radiolabeled fibrinogen-derived clot covered with serum or PBS containing the plasminogen activator; assay type: biochemical, human
Experimental: (§1) Human fibrinogen (Sigma. St. Louis, Mo.) was radiolabeled with ^125I [Higazi, A A-R. & Abu-Much R. et al. J. Biol. Chem. 270:9472-9477 (1995)]. ^125I-labeled fibrinogen was added to a solution of PBS, pH 7.4, containing either 3 mg/ml fibrinogen and 1 μM glu-plasminogen or plasma. Clots were formed in wells of tissue culture plates with an inner diameter of 16 mm (Costar, Cambridge, Mass.). To initiate the clot formation, 10 μl of a solution containing 2 NIH units of thrombin (Sigma. St. Louis, Mo.) were added to 0.4 ml of fibrinogen solution or to plasma. For determination of fibrinolysis, plasminogen activating agents (1 μM) or 1376 MAT cells, in a total volume of 10 μl each, were directly added to the center of the clot and after incubation for specific periods, the wells were washed and the radioactivity of the lavage solution was determined by means of a gamma counter. Fibrinolysis was also measured as previously described [Higazi, A A-R., et al. Biochem. J. 300:251-255 (1994)], by addition of 0.4 ml of serum or PBS, containing 25 nM of the plasminogen activator agent (scuPA, scuPA/suPAR complex or tcuPA). […] Fibrinolytic activity was determined by following the release from the ^125I-labeled fibrin clot of labeled soluble degradation products of fibrin and is illustrated in FIGS. 7 and 8.

[2] = system: radiolabeled fibrinogen-derived clot containing 1 μM glu-plasminogen; experiment: Fibrinolytic activity of suPAR-Sepharose precipitates on fibrinogen-derived clot; assay type: biochemical, human; conditions: FIG. 10
Experimental: as §1, with “8. […]” for “8.”

[3] = system: radiolabeled plasma-derived clot; experiment: Lysis of radiolabeled plasma-derived clot covered with serum or PBS containing the plasminogen activator; assay type: biochemical, human
Experimental: Human fibrinogen (Sigma. St. Louis, Mo.) was radiolabeled with ^125I [Higazi, A A-R. & Abu-Much R. et al. J. Biol. Chem. 270:9472-9477 (1995)]. ^125I-labeled fibrinogen was added to a solution of PBS, pH 7.4, containing either 3 mg/ml fibrinogen and 1 μM glu-plasminogen or plasma. Clots were formed in wells of tissue culture plates with an inner diameter of 16 mm (Costar, Cambridge, Mass.). To initiate the clot formation, 10 μl of a solution containing 2 NIH units of thrombin (Sigma. St. Louis, Mo.) were added to 0.4 ml of fibrinogen solution or to plasma. For determination of fibrinolysis, plasminogen activating agents (1 μM) or 1376 MAT cells, in a total volume of 10 μl each, were directly added to the center of the clot and after incubation for specific periods, the wells were washed and the radioactivity of the lavage solution was determined by means of a gamma counter. Fibrinolysis was also measured as previously described [Higazi, A A-R., et al. Biochem. J. 300:251-255 (1994)], by addition of 0.4 ml of serum or PBS, containing 25 nM of the plasminogen activator agent (scuPA, scuPA/suPAR complex or tcuPA). The plates were incubated at 37° C. in an incubator for the required time (about 2 hours, see legends to the Figures). Aliquots of 25 μl were removed at the specific time point for counting of the solubilized label in a gamma counter. Fibrinolytic activity was determined by following the release from the ^125I-labeled fibrin clot of labeled soluble degradation products of fibrin and is illustrated in FIGS. 7 and 8.

[4] = system: purified bovine fibrinogen clot; experiment: Fibrinolysis of purified fibrinogen clot, size of lytic zones; assay type: biochemical
Experimental: (§2) Fibrinogen containing plasminogen was reconstituted in phosphate buffered saline (PBS), pH 7.4 or in serum to a concentration of 3 mg/ml. Fibrin clots were prepared by the addition of 0.025 NIH units of human thrombin per […] fibrinogen solution. The mixture was decanted onto the lid of a culture dish and incubated for 60 min at room temperature. After clot formation, portions of 10 μl of PBS containing 1 μM scuPA, with or without an equimolar concentration of suPAR, were placed on several parts of the surface of the clot. The clot was incubated for 2 to 3 hr at 37° C., until the appearance of digestion areas on the surface. At that stage the clot was washed several times with PBS and incubated overnight with 0.2° trappan blue. On the following day, the clot was rinsed 4 is times with PBS and photographed The pictures were scanned with a Hoefer GS 300 scanning densitometer. The size of the lytic zones was calculated by the NIH image program.

[5] = system: bovine fibrinogen clot reconstituted in serum; experiment: Fibrinolysis of bovine fibrinogen clot reconstituted in serum; assay type: biochemical; conditions: FIG. 5
Experimental: as §2
In an experiment designed to test the possibility that the different effects were related to the source of fibrinogen, the fibrinogen was removed from plasma by clotting with thrombin and removal of the clot by centrifugation to obtain serum. […] The possibility that the stimulatory activity was derived from the anticoagulants present in plasma was considered.

[6] = system: human plasma clot; experiment: Fibrinolysis of clot formed by thrombin from human plasma (lytic zones / solubilized radioactivity); assay type: biochemical
Experimental: as §2, with “program. […]” for “program.”
as §1, with “Clots were formed in wells of tissue culture plates with an inner diameter of 16 mm (Costar, Cambridge, Mass.). To initiate the clot formation, 10 μl of a solution containing 2 NIH units of thrombin (Sigma. St. Louis, Mo.) were added to 0.4 ml of fibrinogen solution or to plasma.” left out

[7] = system: clot prepared from IgG-depleted plasma; experiment: Lysis of clots derived from normal or IgG-depleted plasma; assay type: biochemical, human; conditions: versus clot from normal plasma, FIG. 13
Experimental: as §1, with “8. […]” for “8.”

[8] = biological target: PAI-1 (Homo sapiens, UniProt P05121); conditions: cited from earlier work
[9] = system: human IgG; experiment: Binding of 125I-suPAR to IgG, precipitation with protein G; conditions: for precipitation by protein G from native plasma: 50 nM radiolabeled protein, FIG. 11
Experimental: Plasma (5 ml) were incubated with 1 ml of IgG (bound to beads, as described) for 2 hr, at 4° C. The beads were precipitated by centrifugation and the plasma was decanted and used for precipitation of radiolabeled suPAR or for formation of clots after addition of thrombin, as described herein before.
(§3) Binding of ^125I-suPAR to IgG was determined by incubation of 50 nM radiolabeled suPAR, 0.1 ml plasma and 0.5 ml of IgG protein, for 2 hr at 4° C. Following incubation, the mixture was centrifugated. The precipitate was washed 4 is times with PBS and the radioactivity incorporated into protein G was determined. Non-specific binding was determined by using plasma that had been depleted of IgG or by measuring the precipitation of irrelevant protein. All experiments were repeated at least three times.

[10] = system: plasminogen; conditions: cited from earlier work
[11] = system: 125I radiolabeled fibrinogen clots; experiment: Lysis of 125I radiolabeled fibrinogen clot, activator added directly to the clot, solubilized radioactivity; assay type: biochemical, human; conditions: 2 hrs
Experimental: as §1

[12] = system: IgG; experiment: Binding of suPAR to IgG with rabbit serum; conditions: rabbit serum instead of human serum, data not shown
Experimental: as §3

[13] = system: human fibrinogen; experiment: Fibrinolysis of human fibrinogen clot (not shown); assay type: biochemical; conditions: human fibrinogen instead of bovine
Experimental: as §2

[14] = plasma derived clot covered by serum, FIG. 8

Chain of PAI-1 (P05121 24-402, species assumed): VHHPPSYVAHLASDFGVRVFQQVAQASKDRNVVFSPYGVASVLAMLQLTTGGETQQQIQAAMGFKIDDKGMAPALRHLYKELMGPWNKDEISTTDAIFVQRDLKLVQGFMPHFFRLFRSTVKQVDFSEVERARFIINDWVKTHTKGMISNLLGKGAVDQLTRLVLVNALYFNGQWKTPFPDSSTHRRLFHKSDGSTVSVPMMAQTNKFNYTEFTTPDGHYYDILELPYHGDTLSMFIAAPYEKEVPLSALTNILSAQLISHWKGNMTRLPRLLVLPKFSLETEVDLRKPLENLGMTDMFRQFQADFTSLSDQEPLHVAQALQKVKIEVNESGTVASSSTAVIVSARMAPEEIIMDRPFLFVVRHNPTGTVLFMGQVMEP

scuPA/suPAR complex: complex comprising single chain urokinase type plasminogen activator (scuPA) and soluble urokinase plasminogen activator receptor (suPAR)
effect of serum covering the clot on fibrinolysis ([1]; clot formed by purified fibrin covered with serum or PBS, FIG. 7): stimulated | fibrinolytic activity relative to that obtained on a plasma-derived clot ([1]; purified fibrin clot covered with serum): about 60% | fibrinolytic activity in the absence of plasma-derived protein(s) [2]: little fibrinolytic activity | scuPA/suPAR-mediated fibrinolytic activity in the presence of plasma-derived protein(s) [2]: significantly increased | change of activity when a plasma clot is used instead of a fibrinogen clot ([3]; FIG. 8): increase | effect of PBS instead of serum on the surface of the clot on fibrinolytic activity ([3]; plasma clot): not affected | time to half maximal fibrinolysis ([3]; plasma clot covered with serum, 25 nM activator): 54 min | time to half maximal fibrinolysis ([3]; plasma clot covered with serum, 50% decrease of the concentration of the complex, data not shown): 102 min | time needed for half maximal fibrinolysis ([3]; plasma clot covered with serum, doubling the concentration of the complex, data not shown): 33 min | activity on clot formed by clotting of plasma compared with tcuPA [3, 14]: greater than that of tcuPA | lytic area ([4]; purified bovine fibrinogen clot, FIG. 1(A), two wells each, listed as scuPA and suPAR): 1.19 cm^2 and 1.05 cm^2 | efficiency of clot cleavage compared with scuPA alone ([5]; purified bovine fibrinogen added to serum): greater efficiency than by scuPA alone | size of the lytic area ([6]; human plasma clot, FIG. 2(A) lane (c), upper and lower panels, listed as scuPA and suPAR): 0.94 cm^2 and 0.90 cm^2 | scuPA/suPAR mediated fibrinolysis of clot from IgG-depleted plasma [7]: markedly retarded | mechanism of PAI-1 inhibition [8]: competitive and reversible | susceptibility of activity to PAI-1 [8]: relatively resistant

plasminogen: radiolabeled plasminogen used as irrelevant protein control in the protein G precipitation [reference compound]
precipitation by protein G from native plasma [9]: not precipitated

suPAR: soluble urokinase plasminogen activator receptor
effect of suPAR on scuPA activity ([10]; plasmin substrate Spect PL): stimulated | effect of suPAR on scuPA-mediated plasminogen activation ([10]; synthetic plasmin substrate S-2251): inhibit | inhibition of scuPA activity in the presence of suPAR [11]: ~50% | interaction between IgG and suPAR [12]: no interaction | precipitation by protein G from native plasma [9]: immunoprecipitates | precipitation with purified human IgG instead of plasma ([9]; FIG. 12): the same results were obtained | precipitation of suPAR with IgG-depleted plasma ([9]; IgG-depleted plasma versus native plasma): less than 25% | effect of suPAR alone on fibrinolysis ([3]; plasma clot, FIG. 6): depends on the presence of scuPA | effect of addition of suPAR to tcuPA [3, 14]: small stimulatory effect | inhibition of scuPA activity in the presence of suPAR ([4]; unlabeled bovine fibrinogen clot, equimolar suPAR): about 40% | inhibition of scuPA activity by suPAR [13]: also observed | enhancement of scuPA-mediated fibrinolysis by addition of suPAR ([6]; plasma clots, FIG. 2): up to 14 fold

ATF: amino-terminal fragment of urokinase; blocks interaction of scuPA with suPAR [reference compound]
effect of ATF on scuPA/suPAR mediated fibrinolysis ([3]; 250 nM ATF, plasma clot covered with serum): significantly inhibited | effect of ATF on the stimulatory effect of suPAR ([5]; bovine fibrinogen clot in serum): can be abolished | effect of ATF on the stimulatory effect of suPAR on scuPA-mediated fibrinolysis ([6]; plasma clot, FIG. 3): almost complete inhibition

— US6911316B1, “Medical uses of scuPA/suPAR complex” (Thrombotech Ltd., priority 1996, dated 2005)
